Paper PMC11865577 (2024)

Key:
[1] = tested on: hsa-mir-6850 (RNA, G4) AGCCGGGGCGGGAGGGGAAGGGACGCCCGGCU; assay: fluorescence titration; conditions: 20 mM NaCl, 80 mM KCl, apparent
[2] = tested on: hsa-mir-21 (RNA, miRNA) AGCGUUGACUGUUGAAUCUCAUGGCAACGCU; assay: fluorescence titration; conditions: 20 mM NaCl, 80 mM KCl, phosphate pH 7.0, apparent
[3] = tested on: hsa-mir-221 (RNA, miRNA) AGCAGAUUUCUGUGUUCGUUAGGCAACAGCUGCU; assay: fluorescence titration; conditions: 20 mM NaCl, 80 mM KCl, phosphate pH 7.0, apparent
[4] = tested on: hsa-mir-191 (RNA, miRNA) AGCCAGCUGUUGUCUCCAGAGCAUUCCAGCUGGCU; assay: fluorescence titration; conditions: 20 mM NaCl, 80 mM KCl, phosphate pH 7.0, apparent
[5] = tested on: hsa-mir-374a (RNA, miRNA) AGCUAAGUGUUAUAGCACUUAGCU; assay: fluorescence titration; conditions: 20 mM NaCl, 80 mM KCl, phosphate pH 7.0, apparent
[6] = tested on: hsa-mir-4437 (RNA, miRNA) AGCUCCACAAGGAGGGGAUGACCCUUGUGGGGCU; assay: fluorescence titration; conditions: 20 mM NaCl, 80 mM KCl; 20 mM phosphate pH 7.0, 1% DMSO, 20 °C; apparent
[7] = tested on: hsa-mir-4520-1-mutG2A (RNA, miRNA) AGCCCAAAUCAAAAAAGGAUUUGGGCU; assay: fluorescence titration; conditions: 20 mM NaCl, 80 mM KCl; 20 mM phosphate pH 7.0, 1% DMSO, 20 °C; apparent
[8] = tested on: hsa-mir-4520-1-mutG7A (RNA, miRNA) AGCCCAAAUCAGAAAAAGAUUUGGGCU; assay: fluorescence titration; conditions: 20 mM NaCl, 80 mM KCl; 20 mM phosphate pH 7.0, 1% DMSO, 20 °C; apparent
[9] = tested on: hsa-mir-4520-1 loop (biotinylated) (RNA, miRNA) AGCCCAAAUCAGAAAAGGAUUUGGGCU; assay: SPR, single-cycle kinetics; conditions: 20 mM NaCl, 80 mM KCl; 20 mM phosphate pH 7.0, 25 °C; apparent
[10] = tested on: hsa-mir-4773-1 (RNA, miRNA) AGCUCUGCUUUAUUUCAUCAAAGCAGAGCU; assay: fluorescence titration; conditions: 20 mM NaCl, 80 mM KCl; 20 mM phosphate pH 7.0, 1% DMSO, 20 °C; apparent
[11] = tested on: common stem sequence with four Us in the terminal loop (RNA, hairpin) GUGUACGAAGUUUCAGCUUUUGCUGAAGCUUCGUGCAC; assay: fluorescence titration; conditions: 20 mM NaCl, 80 mM KCl; 20 mM phosphate pH 7.0, 1% DMSO, 20 °C; apparent
[12] = tested on: mutG7A (biotinylated) (RNA, miRNA) AGCCCAAAUCAGAAAAAGAUUUGGGCU; assay: SPR, multi-cycle, 1:1 fit; conditions: 20 mM NaCl, 80 mM KCl; 20 mM phosphate pH 7.0, 1% DMSO, 25 °C; up to 50 μM; apparent
[13] = tested on: G4_(GGGU)6 (RNA, G4) AGCGGGUGGGUGGGUGGGUGGGUGGGUGCU; assay: fluorescence titration; conditions: 20 mM NaCl, 80 mM KCl; 20 mM phosphate pH 7.0, 1% DMSO, 20 °C; apparent
[14] = tested on: hsa-mir-6847 (RNA, miRNA) AGCGAGCUGGAAGGAGUGGGCCUGGCUCGCU; assay: fluorescence titration; conditions: 20 mM NaCl, 80 mM KCl; 20 mM phosphate pH 7.0, 1% DMSO, 20 °C; apparent
[15] = tested on: mutG2A (biotinylated) (RNA, miRNA) AGCCCAAAUCAAAAAAGGAUUUGGGCU; assay: SPR, single-cycle kinetics; conditions: 20 mM NaCl, 80 mM KCl; 20 mM phosphate pH 7.0, 25 °C; apparent
[16] = tested on: hsa-mir-4520-1 mutG2,7A (RNA, miRNA) AGCCCAAAUCAAAAAAAGAUUUGGGCU; assay: fluorescence titration; conditions: 20 mM NaCl, 80 mM KCl; 20 mM phosphate pH 7.0, 1% DMSO, 20 °C; apparent
[17] = tested on: hsa-mir-4520-1 loop (RNA, miRNA) AGCCCAAAUCAGAAAAGGAUUUGGGCU; assay: fluorescence titration; conditions: 20 mM NaCl, 80 mM KCl; 20 mM phosphate pH 7.0, 1% DMSO, 20 °C; apparent
[18] = 20 mM phosphate pH 7.0, 1% DMSO, 20 °C, 0.1 μM compound
[19] = 1 μM compound, range 2.6-16 μM for all RNAs

## CN1C(=CC=Cc2cc[n+](CCC[N+](C)(C)C)c3ccccc23)Sc2ccccc21
[1]; [18]
  KDapp: 0.19 µM

## C[n+]1c(C=C2C=CN(CCC[N+](C)(C)C)c3ccccc32)sc2ccccc21
[1]; [18]
  KDapp: 0.20 µM

## COc1ccc2c(c[n+](C)c3c4cc5c(cc4ccc23)OCO5)c1OC
[2]; [19]
  KDapp: 2.6 ± 0.6 µM
[3]; [19]
  KDapp: 3.8 ± 0.3 µM
[1]; phosphate pH 7.0, 1 μM compound, range 2.6-16 μM for all RNAs
  KDapp: 4.0 ± 0.5 µM
[4]; [19]
  KDapp: 3.8 ± 0.5 µM
[5]; [19]
  KDapp: 12 ± 1 µM

## C[n+]1ccc(C=C2Sc3ccccc3N2CCCCC(=O)NCCOCCOCCOCCN=[N+]=[N-])c2ccccc21
[6]
  KDapp: 4.4 µM

## O=c1c(O)c(-c2cc(O)c(O)c(O)c2)oc2cc(O)cc(O)c12
[2]; range 16-25 μM for target RNAs
  KDapp: 16 ± 0.5 µM
[3]; range 16-25 μM for target RNAs
  KDapp: 20 ± 2 µM
[1]; phosphate pH 7.0
  KDapp: 3.3 ± 0.1 µM
[4]; range 16-25 μM for target RNAs
  KDapp: 25 ± 3 µM
[5]; 0-40 μM RNA, low-rank RNA
  KDapp: > 40 µM

## O=c1cc(-c2ccccc2)oc2cc(O)c(O)c(O)c12
[2]; 0-40 μM RNA
  KDapp: > 40 µM
[3]; 0-40 μM RNA
  KDapp: > 40 µM
[4]; 0-40 μM RNA
  KDapp: > 40 µM

## [N-]=[N+]=NCCOCCOCCOCCNC(=O)Cn1cc2c(nc1=O)Nc1c(OCCN)cccc1O2
[7]
  KDapp: 0.011 µM
[8]
  KDapp: 15 µM
[9]
  KDapp: 0.10 ± 0.02 µM
[10]
  KDapp: > 20 µM
[11]
  KDapp: 9 µM
[12]
  KDapp: > 50 µM
[13]
  KDapp: 0.15 µM
[1]; 20 mM phosphate pH 7.0, 1% DMSO, 20 °C
  KDapp: 0.19 µM
[14]
  KDapp: 0.022 µM
[15]
  KDapp: 0.044 ± 0.008 µM
[16]
  KDapp: 3.7 µM
[17]
  KDapp: 0.024 µM

## N#CC(c1ccnc(OCc2ccc(CN3CCOCC3)cc2)n1)c1nc2ccccc2s1 (stereo not shown)
[2]; 1 μM compound
  KDapp: 20 µM
[1]; phosphate pH 7.0, 1 μM compound
  KDapp: 4.5 µM
[4]; 1 μM compound
  KDapp: 14 µM
